One assay deals with Escherichia coli. Nature of the assay: Antibacterial activity against Escherichia coli ATCC 10536 after 20 to 24 hrs by broth microdilution method. Format: functional. Background: Broth dilution looks for growth in wells or tubes with falling amounts of substance.
In another assay the test system is Staphylococcus aureus. Nature of the assay: Antibacterial activity against Staphylococcus aureus ATCC 25923 after 20 to 24 hrs by broth microdilution method. Format: functional.
The subject of a further assay is Micrococcus luteus. Put plainly: Antibacterial activity against Micrococcus luteus ATCC 10240 after 20 to 24 hrs by broth microdilution method. Format: functional.
A further assay deals with Klebsiella pneumoniae. Put plainly: Antibacterial activity against Klebsiella pneumoniae ATCC BAA-2146 after 20 to 24 hrs by broth microdilution method. Format: functional.
The next assay has as its system Bacillus subtilis. Nature of the assay: Antibacterial activity against Bacillus subtilis ATCC 11774 after 20 to 24 hrs by broth microdilution method. Format: functional.
Another assay relates to Pseudomonas aeruginosa. Nature of the assay: Antibacterial activity against Pseudomonas aeruginosa ATCC 10145 after 20 to 24 hrs by broth microdilution method. Format: functional.
Assay [1] deals with Staphylococcus epidermidis. Put plainly: Antibacterial activity against Staphylococcus epidermidis ATCC 12228 after 20 to 24 hrs by broth microdilution method. Format: functional.
The next assay deals with Enterococcus faecalis. Nature of the assay: Antibacterial activity against Enterococcus faecalis ATCC 51299 after 20 to 24 hrs by broth microdilution method. Format: functional.
Another assay has as its system A549. Put plainly: Antiproliferative activity against human A549 cells after 48 hrs by MTT assay. Format: functional, cell-based. The conditions noted are these: A549, 48 h. (In general: Formazan colour is commonly taken as a measure of viable cells.)
The subject of the next assay is HepG2. Nature of the assay: Antiproliferative activity against human HepG2 cells after 48 hrs by MTT assay. Format: functional, cell-based. The conditions noted are these: HepG2, 48 h.
A further assay concerns T47D. Nature of the assay: Antiproliferative activity against human T47D cells after 48 hrs by MTT assay. Format: functional, cell-based.
The subject of a further assay is HCT-116. Put plainly: Antiproliferative activity against human HCT116 cells after 48 hrs by MTT assay. The conditions noted are these: HCT-116, 48 h. Format: functional, cell-based.

SMILES strings stand for the structures. Values after ≈ are worked out from the molar mass of the structure shown.

A word on the MIC: it is the lowest concentration that inhibits growth of the organism. Read a high MIC as a need for much substance. Consider `C[C@H]1COc2c(N3CCN(C)CC3)c(F)cc3c(=O)c(C(=O)O)cn1c23.C[C@H]1COc2c(N3CCN(C)CC3)c(F)cc3c(=O)c(C(=O)O)cn1c23.O` [LEVOFLOXACIN], for which the MIC in the assay with Escherichia coli is 0.078 µg/mL; against Staphylococcus aureus, 0.078 to 0.156 µg/mL; with Micrococcus luteus it was 0.078 µg/mL; in the assay on Klebsiella pneumoniae it was 2.5 to 5 µg/mL; with Bacillus subtilis, 0.39 µg/mL; in the assay with Pseudomonas aeruginosa, 0.312 to 0.625 µg/mL. In addition, the minimal inhibitory concentration (MIC) in [1] is 0.039 to 0.078 µg/mL; in the assay on Enterococcus faecalis it was 0.156 µg/mL.

As usually defined, the IC50 is the midpoint of a concentration-inhibition curve. As for `CCCCOC(=O)c1ccccc1C(=O)OCC(C)C`, the IC50 in the assay with A549 amounted to 38 µM; with HepG2, 53.3 µM; in the assay on T47D, 48.7 µM; in the assay on HCT-116, 36.1 µM. The minimal inhibitory concentration (MIC) with Escherichia coli, against Staphylococcus aureus, with Micrococcus luteus, in the assay on Klebsiella pneumoniae, against Bacillus subtilis and against Pseudomonas aeruginosa was above 128 µg/mL in each case. Further, the MIC (in assay [1]; in the assay on Enterococcus faecalis) was above 128 µg/mL each time.

For `NCC[C@H](O)C(=O)N[C@@H]1C[C@H](N)[C@@H](O[C@H]2O[C@H](CN)[C@@H](O)[C@H](O)[C@H]2O)[C@H](O)[C@H]1O[C@H]1O[C@H](CO)[C@@H](O)[C@H](N)[C@H]1O` [AMIKACIN], the MIC against Escherichia coli is 0.312 to 0.625 µg/mL (≈ 0.533 to 1.07 µM); with Staphylococcus aureus, 2.5 µg/mL (≈ 4.27 µM); in the assay with Micrococcus luteus, 0.39 µg/mL (≈ 0.666 µM); against Klebsiella pneumoniae, 5 µg/mL (≈ 8.54 µM); with Bacillus subtilis, 0.625 µg/mL (≈ 1.07 µM); in the assay with Pseudomonas aeruginosa, 2.5 µg/mL (≈ 4.27 µM). The MIC in [1] came to 2.5 µg/mL (≈ 4.27 µM); against Enterococcus faecalis it was 0.39 µg/mL (≈ 0.666 µM).

Take `O=c1[nH]cc(F)c(=O)[nH]1` [FLUOROURACIL]: the IC50 stood at 15.1 µM in the assay with A549, 20.1 µM with HepG2, 12.1 µM with T47D and 26.2 µM in the assay on HCT-116.

On to `CC1=C2C(O)C(C(C)CO)CCC2(C)C=CC1=O` (stereo unspecified), for which the IC50 with A549 is 22.3 µM; in the assay on HepG2 it was 38.8 µM; with T47D it was 26.7 µM; in the assay on HCT-116, 19.2 µM. For the same compound, the MIC worked out at 32 µg/mL (≈ 128 µM) in the assay on Escherichia coli; 64 µg/mL (≈ 256 µM) with Staphylococcus aureus; 128 µg/mL (≈ 511 µM) against Micrococcus luteus; 32 µg/mL (≈ 128 µM) against Klebsiella pneumoniae; 128 µg/mL (≈ 511 µM) in the assay with Bacillus subtilis; 64 µg/mL (≈ 256 µM) against Pseudomonas aeruginosa. Moreover, the MIC was above 128 µg/mL in assay [1] and 128 µg/mL (≈ 511 µM) against Enterococcus faecalis.

Take `CC(C)CC[C@H](O)[C@@H]1C(=O)OC[C@H]1CO`: the IC50 in the assay on A549 was 71.5 µM; in the assay on HepG2, above 100 µM; in the assay on T47D it was above 100 µM; in the assay on HCT-116 it was 62.3 µM. Further, the MIC in the assay on Escherichia coli was found to be 32 µg/mL (≈ 148 µM); against Staphylococcus aureus, 64 µg/mL (≈ 296 µM); in the assay with Micrococcus luteus, 128 µg/mL (≈ 592 µM); in the assay with Klebsiella pneumoniae, 64 µg/mL (≈ 296 µM); with Bacillus subtilis it was 128 µg/mL (≈ 592 µM); in the assay with Pseudomonas aeruginosa it was 32 µg/mL (≈ 148 µM). Further, the MIC (in [1]; against Enterococcus faecalis) was 128 µg/mL (≈ 592 µM) throughout.

The record behind these values is ChEMBL document CHEMBL4028820, “Novel bioactive molecules from Lentzea violacea strain AS 08 using one strain-many compounds (OSMAC) approach” (Bioorg Med Chem Lett, 2017).
